One may read the IC50 as the concentration needed to halve the response being measured.

This passage reports IC50 results from ChEMBL document CHEMBL5634183, “Total Synthesis of Bipenicilisorin and Assignment of the Absolute Configuration” (J Nat Prod, 2024).

In one data set the test system is Colon 26. Kind of data set: Antiproliferative activity against mouse Colon 26 cells assessed as reduction in cell viability incubated for 72 hrs by CCK8 assay. The class given is functional, cell-based. The settings on record: Colon 26, 72 h. For orientation: Tetrazolium assays rely on reduction of a dye to a coloured formazan, in cell work by metabolically active cells.

The nature of data set [1]: Cytotoxicity against mouse RAW264.7 cells assessed as reduction in cell viability incubated for 72 hrs by CCK8 assay. The class given is toxicity, cell-based.
The test system of data set [2] is A549. Put plainly: Antiproliferative activity against human A549 cells assessed as reduction in cell viability incubated for 72 hrs by CCK8 assay. Format: functional, cell-based.
Data set [3] relates to A549. Kind of data set: Antiproliferative activity against human A549 cells assessed as reduction in cell viability by CCK8 assay. Format: functional, cell-based.
In a further data set the test system is Huh-7. Put plainly: Antiproliferative activity against human Huh-7 cells assessed as reduction in cell viability by CCK8 assay. Format: functional, cell-based.
Another data set relates to K562. Kind of data set: Antiproliferative activity against human K562 cells assessed as reduction in cell viability by CCK8 assay. Format: functional, cell-based.

Each structure is given as a SMILES string. Bounds are passed on as bounds.

On to `COC(=O)c1cc2cc(OC)c(-c3c(OC)cc4cc(C(=O)OC)oc(=O)c4c3O)c(O)c2c(=O)o1`, for which the IC50 in the data set with Colon 26 was greater than 50 µM; with A549 [2] (Homo sapiens, A549, 72 h), 36.9 µM; with A549 [2] (a549) it was 60 µM; in the data set on A549 [3], 6.94 µM; in the data set with Huh-7, 2.59 µM; in the data set on K562 it was 6.87 µM. In data set [1], the IC50 at 72 h is greater than 50 µM.
